Patent publication US10975082B2, “Inhibitor of FLT3 kinase and use thereof” (PRECEDO PHARMACEUTICALS CO., LTD, priority 2016, dated 2021)

Assays:
[1] = test system: MOLM-13, MOLM-14 and MV-4-11 cell lines; assay: Cell cycle distribution by flow cytometry (PI); assay type: cell-based, human; settings: MOLM-13, MOLM-14 and MV-4-11, 12 or 24 hours; Compound 1 0.01-0.1 μM, AC220 0.1 μM
MOLM-14 = assay: Cancer cell proliferation, Cell Titer-Glo, GI50; assay type: cell-based; settings: Homo sapiens; MOLM-14, 72 hours
Protocol: (§1) Compounds of the invention were evaluated for their inhibitory effects on proliferation of cancer cells as well as the selectivity thereof by testing their effects on growth of cancer cells (Table 2).
(§2) In this example the following cells were selected: human acute myeloid leukemia cells MV-4-11 (expressing FLT3[ITD] mutant gene), human acute myeloid leukemia cells MOLM-13 (expressing FLT3[ITD] mutant gene and wild-type FLT3 gene), human acute myeloid leukemia cells MOLM-14 (expressing FLT3[ITD] mutant gene and wild-type FLT3 gene), human acute myeloid leukemia cells OCI-AML3 (expressing FLT3[A680V] mutant gene), human acute myeloid leukemia cells U937 (expressing wild-type FLT3 gene), and mouse pro-B cells BaF3, and the above cells were purchased from ATCC.
(§3) Then the number of viable cells was determined by quantification of ATP in living cells using Cell Titer-Glo® (Promega, the USA) Luminescent Cell Viability Assay kit and thereby GI50 was calculated.

MV-4-11 = assay: Cancer cell proliferation, Cell Titer-Glo, GI50; assay type: cell-based; settings: Homo sapiens, MV4-11; MV-4-11, 72 hours
Protocol: as §1, §2, §3

U937 = assay: Cancer cell proliferation, Cell Titer-Glo, GI50; assay type: cell-based; settings: Homo sapiens, U-937; U937, 72 hours
Protocol: as §1, §2, §3

BaF3-FLT3 [ITD + D835Y] = assay: Cell proliferation, Cell Titer-Glo, GI50; assay type: cell-based; settings: Mus musculus, Ba/F3 FLT3-ITD, 72 hours
Protocol: as §1
(§4) Mouse BaF3-FLT3[ITD] (stably expressing FLT3[ITD] mutant activated kinase), mouse tel-BaF3-FLT3-D835Y (stably expressing FLT3[D835Y]mutant activated kinase), mouse tel-BaF3-BMX (stably expressing BMX kinase), mouse tel-FLT3-BaF3 (stably expressing FLT3 kinase), mouse BaF3-FLT3-ITD-D835Y (stably expressing FLT3[ITD+D835Y]mutant activated kinase), mouse BaF3-FLT3-ITD-F691L (stably expressing FLT3[ITD+F691L]mutant activated kinase), mouse tel-cKIT-BaF3 (stably expressing cKIT kinase), mouse BaF3-tel-cKit-N882K (stably expressing cKIT-N882K mutant activated kinase), mouse BaF3-tel-cKit-D816V (stably expressing cKIT-D816V mutant activated kinase), mouse BaF3-tel-cKit-T670I (stably expressing cKIT-T670I mutant activated kinase), mouse TPR-MET-BaF3 (stably expressing MET kinase), mouse tel-BaF3-EGFR (stably expressing EGFR kinase), mouse BaF3-FL-EGFR-L858R (stably expressing EGFR[L858R]mutant activated kinase), mouse tel-BaF3-BLK (stably expressing BLK kinase), mouse tel-JAK1-BaF3 (stably expressing JAK1 kinase) and the like were also used (see Table 2 for details). The above cell lines were all constructed by our laboratory according to the following method: the kinase region sequences of human FLT3/ITD, FLT3 D835Y, BMX, FLT3, FLT3[ITD+D835Y], FLT3[ITD+F691L], cKIT, cKIT [N882K], cKIT [D816V], cKIT [T670I], MET, EGFR, EGFR [L858R], BLK, JAK1, FLT3[K663Q], FLT3[D835V], FLT3[D835H], PDGFRa, PEGFRb, VEGFR2, JAK2, JAK3, ABL were amplified by PCR, and inserted into MSCV-Puro vectors with N-terminal TEL or TPR fragments (purchased from Clontech), respectively. The vectors were stably transfected into mouse BaF3 cells (purchased from ATCC) by means of retrovirus, and the growth factor IL-3 were removed, eventually obtaining cell lines that are transferred protein (FLT3/ITD, FLT3 D835Y, BMX, FLT3, FLT3[ITD D835Y], FLT3[ITD+F691L], cKIT, cKIT [N882K], cKIT [D816V], cKIT [T670I], MET, EGFR, EGFR [L858R], BLK, JAK1, FLT3[K663Q], FLT3[D835V], FLT3[D835H], PDGFRa, PEGFRb, VEGFR2, JAK2, JAK3, ABL)-dependent.
as §3

BaF3-FLT3 [ITD] = assay: Cell proliferation, Cell Titer-Glo, GI50; assay type: cell-based; settings: Mus musculus, Ba/F3 FLT3-ITD, 72 hours
Protocol: as §1, §4, §3

BaF3-TEL-FLT3 [D835V] = assay: Cell proliferation, Cell Titer-Glo, GI50; assay type: cell-based; settings: Mus musculus, 72 hours
Protocol: as §1, §4, §3

BaF3-TEL-FLT3 [D835Y] = assay: Cell proliferation, Cell Titer-Glo, GI50; assay type: cell-based; settings: Mus musculus, 72 hours
Protocol: as §1, §4, §3

BaF3-TEL-FLT3 [K663Q] = assay: Cell proliferation, Cell Titer-Glo, GI50; assay type: cell-based; settings: Mus musculus, 72 hours
Protocol: as §1, §4, §3

BaF3-TEL-FLT3 = assay: Cell proliferation, Cell Titer-Glo, GI50; assay type: cell-based; settings: Mus musculus; BaF3-TEL-FLT3, 72 hours
Protocol: as §1, §4, §3

BaF3-TEL-cKIT = assay: Cell proliferation, Cell Titer-Glo, GI50; assay type: cell-based; settings: Mus musculus, 72 hours
Protocol: as §1, §4, §3

BaF3-TEL-cKit [D816V] = assay: Cell proliferation, Cell Titer-Glo, GI50; assay type: cell-based; settings: Mus musculus, 72 hours
Protocol: as §1, §4, §3

BaF3-TEL-cKit [N882K] = assay: Cell proliferation, Cell Titer-Glo, GI50; assay type: cell-based; settings: Mus musculus, 72 hours
Protocol: as §1, §4, §3

BaF3 = assay: Cell proliferation, Cell Titer-Glo, GI50; assay type: cell-based; settings: Mus musculus; BaF3, 72 hours
Protocol: as §1, §2, §3

SMILES | GI50 (MOLM-14) [nM] | GI50 (MV-4-11) [nM] | GI50 (U937) [nM] | GI50 (BaF3-FLT3 [ITD + D835Y]) [nM] | GI50 (BaF3-FLT3 [ITD]) [nM] | GI50 (BaF3-TEL-FLT3 [D835V]) [nM] | GI50 (BaF3-TEL-FLT3 [D835Y]) [nM] | GI50 (BaF3-TEL-FLT3 [K663Q]) [nM] | GI50 (BaF3-TEL-FLT3) [nM] | GI50 (BaF3-TEL-cKIT) [nM] | GI50 (BaF3-TEL-cKit [D816V]) [nM] | GI50 (BaF3-TEL-cKit [N882K]) [nM] | GI50 (BaF3) [nM] | cell cycle distribution [1]
CC(C)(C)c1cc(NC(=O)Nc2ccc(-c3cn4c(n3)sc3cc(OCCN5CCOCC5)ccc34)cc2)no1 [AC220, reference compound] |  |  |  |  |  |  |  |  |  |  |  |  |  | similar
CC(C)CNC(=O)Nc1ccc(-n2nc(-c3ccc(OCCN4CCOCC4)cc3)c3c(N)ncnc32)cc1 [Compound 4, 1-(4-(4-amino-3-(4-(2-morpholinoethoxy)phenyl)-1H-pyrazolo[3,4-d]pyrimidin-1-yl)phenyl)-3-isobutylurea] | 2500 | 2800 | > 10000 | > 10000 | 1100 | > 10000 | > 10000 | > 10000 | 5400 | > 10000 | > 10000 | > 10000 | > 10000 | 
CN(C)CCNC(=O)Nc1ccc(-n2nc(-c3ccc(OCCN4CCOCC4)cc3)c3c(N)ncnc32)cc1 [Compound 5, 1-(4-(4-amino-3-(4-(2-morpholinoethoxy)phenyl)-1H-pyrazolo[3,4-d]pyrimidin-1-yl)phenyl)-3-(2-(dimethylamino)ethyl)urea] | 130 | 82 | 9200 | 1300 | 100 | 1700 | 1300 | 3700 | 320 | 3500 | 8300 | 3300 | 3800 | 
CC(C)(C)c1ccc(NC(=O)Nc2ccc(-n3nc(-c4ccc(OCCN5CCOCC5)cc4)c4c(N)ncnc43)cc2)cc1 [Compound 10, 1-(4-(4-amino-3-(4-(2-morpholinoethoxy)phenyl)-1H-pyrazolo[3,4-d]pyrimidin-1-yl)phenyl)-3-(4-(tert-butyl)phenyl)urea] | 81 | 63 | 8500 | 4400 | 24 | 4500 | 4400 | > 10000 | 190 | 990 | 4400 | 1100 | > 10000 | 
Nc1ncnc2c1c(-c1ccc(OCCN3CCOCC3)cc1)nn2-c1ccc(NC(=O)Nc2ccc(Cl)c(C(F)(F)F)c2)cc1 [Compound 12, 1-(4-(4-amino-3-(4-(2-morpholinoethoxy)phenyl)-1H-pyrazolo[3,4-d]pyrimidin-1-yl)phenyl)-3-(4-chloro-3-(trifluoromethyl)phenyl)urea] | 3 | 3 | 2400 | 1600 | 3 | 210 | 1600 | 5400 | 12 | 140 | 4000 | 96 | 3000 | 

The next lines start with results.

GI50 (MOLM-14) [nM] | GI50 (MV-4-11) [nM] | GI50 (U937) [nM] | GI50 (BaF3-FLT3 [ITD + D835Y]) [nM] | GI50 (BaF3-FLT3 [ITD]) [nM] | GI50 (BaF3-TEL-FLT3 [D835V]) [nM] | GI50 (BaF3-TEL-FLT3 [D835Y]) [nM] | GI50 (BaF3-TEL-FLT3 [K663Q]) [nM] | GI50 (BaF3-TEL-FLT3) [nM] | GI50 (BaF3-TEL-cKIT) [nM] | GI50 (BaF3-TEL-cKit [D816V]) [nM] | GI50 (BaF3-TEL-cKit [N882K]) [nM] | GI50 (BaF3) [nM] | SMILES | cell cycle distribution [1]
< 0.3 | < 0.3 | 1700 | 240 | 0.9 | 8 | 240 | 1600 | 2 | 40 | 1900 | 9 | 2500 | CCN1CCN(Cc2ccc(-c3nn(-c4ccc(NC(=O)Nc5cc(C(C)(C)C)on5)cc4)c4ncnc(N)c34)cc2)CC1 [Compound 20, 1-(4-(4-amino-3-(4-((4-ethylpiperazin-1-yl)methyl)phenyl)-1H-pyrazolo[3,4-d]pyrimidin-1-yl)phenyl)-3-(5-(tert-butyl)isoxazol-3-yl)urea] | 
< 0.3 | < 0.3 | 4100 |  |  |  | 1 | 5400 | < 0.3 | 12 |  |  | 5900 | CC(C)(C)c1cc(NC(=O)Nc2ccc(-n3nc(-c4ccc(CN5CCOCC5)cc4)c4c(N)ncnc43)cc2)no1 [Compound 23, 1-(4-(4-amino-3-(4-(morpholinomethyl)phenyl)-1H-pyrazolo[3,4-d]pyrimidin-1-yl)phenyl)-3-(5-(tert-butyl)isoxazol-3-yl)urea] | 
1 | < 0.3 | > 10000 | 610 | 0.7 | 20 | 610 | > 10000 | 1 | 38 | 7600 | 29 | > 10000 | CC(C)(C)c1cc(NC(=O)Nc2ccc(-n3nc(-c4cccnc4)c4c(N)ncnc43)cc2)no1 [Compound 26, 1-(4-(4-amino-3-(pyridin-3-yl)-1H-pyrazolo[3,4-d]pyrimidin-1-yl)phenyl)-3-(5-(tert-butyl)isoxazol-3-yl)urea] | 
1 | 0.6 | > 10000 | 600 | 1 | 22 | 600 | > 10000 | 2 | 120 | > 10000 | 51 | > 10000 | CC(C)(C)c1cc(NC(=O)Nc2ccc(-n3nc(-c4ccc(NS(C)(=O)=O)cc4)c4c(N)ncnc43)cc2)no1 [Compound 27] | 
2 | 1 | > 10000 |  | 2 |  | 3 | > 10000 | 4 | 41 |  |  | 6900 | CC(C)(C)c1cc(NC(=O)Nc2ccc(-n3nc(-c4ccc(N5CCOCC5)nc4)c4c(N)ncnc43)cc2)no1 [Compound 28, 1-(4-(4-amino-3-(6-morpholinopyridin-3-yl)-1H-pyrazolo[3,4-d]pyrimidin-1-yl)phenyl)-3-(5-(tert-butyl)isoxazol-3-yl)urea] | 
